In the NIST ThermoML archive (doi:10.1016/j.fluid.2015.03.048):

Experiment: xn = mol fraction of the nth substance listed
Details: 303.15 K, 100 kPa, Liquid; for viscosity: Capillary tube (Ostwald / Ubbelohde) method; for excess molar volume: Direct dilatometry; for speed of sound: Frequency=3 MHz, Sing-around technique in a fixed-path interferometer; for mass density: Pycnometric method

Clc1ccc(Cl)c(Cl)c1 [1,2,4-trichlorobenzene] + CC(=O)N(C)C
Details | excess molar volume [m3/mol] | mass density [kg/m3] | speed of sound [m/s] | viscosity [mPa·s]
x2 = 0.0697 | – | 1407.11 | 1289 | –
x2 = 0.0921 | 2.1e-08 | – | – | 1.608
x2 = 0.1026 | – | 1390.55 | 1299 | –
x2 = 0.1341 | 3.1e-08 | – | – | 1.578
x2 = 0.1407 | – | 1371.4 | 1308 | –
x2 = 0.1758 | – | 1353.78 | 1316 | –
x2 = 0.1815 | 4.3e-08 | – | – | 1.523
x2 = 0.2103 | – | 1336.46 | 1325 | –
x2 = 0.2241 | 5.2e-08 | – | – | 1.474
x2 = 0.2601 | – | 1311.41 | 1336 | –
x2 = 0.265 | 6.1e-08 | – | – | 1.445
x2 = 0.3225 | 7.4e-08 | – | – | 1.403
x2 = 0.3592 | – | 1261.63 | 1354 | –
x2 = 0.4015 | – | 1240.42 | 1365 | –
x2 = 0.4257 | – | 1228.27 | 1368 | –
x2 = 0.4315 | 9.5e-08 | – | – | 1.383
x2 = 0.476 | 9.9e-08 | – | – | 1.353
x2 = 0.4786 | – | 1201.84 | 1378 | –
x2 = 0.501 | 1e-07 | – | – | 1.284
x2 = 0.5539 | – | 1164.24 | 1391 | –
x2 = 0.5542 | 9.7e-08 | – | – | 1.292
x2 = 0.6271 | 8.8e-08 | – | – | 1.205
x2 = 0.6383 | – | 1122.13 | 1405 | –
x2 = 0.705 | 7.3e-08 | – | – | 1.197
x2 = 0.7344 | – | 1074.16 | 1419 | –
x2 = 0.7519 | – | 1065.39 | 1420 | –
x2 = 0.7892 | 5.5e-08 | – | – | 1.152
x2 = 0.8041 | 5.2e-08 | – | – | 1.096
x2 = 0.9052 | – | 988.77 | 1440 | –
x2 = 0.9282 | 2.2e-08 | – | – | 1.088

Clc1ccccc1Cl [1,2-dichlorobenzene] + CC(=O)N(C)C
Details | excess molar volume [m3/mol] | mass density [kg/m3] | speed of sound [m/s] | viscosity [mPa·s]
x2 = 0.0664 | – | 1275.7 | 1263 | –
x2 = 0.0805 | -3.6e-08 | – | – | 1.294
x2 = 0.1017 | – | 1263.13 | 1276 | –
x2 = 0.1224 | -5e-08 | – | – | 1.29
x2 = 0.1344 | – | 1251.49 | 1284 | –
x2 = 0.1605 | -6e-08 | – | – | 1.283
x2 = 0.1841 | – | 1233.77 | 1298 | –
x2 = 0.2175 | -7.5e-08 | – | – | 1.277
x2 = 0.2229 | – | 1219.92 | 1307 | –
x2 = 0.2611 | -8.4e-08 | – | – | 1.276
x2 = 0.2821 | – | 1198.76 | 1319 | –
x2 = 0.3261 | -9.1e-08 | – | – | 1.261
x2 = 0.4095 | – | 1152.99 | 1344 | –
x2 = 0.4319 | -9.2e-08 | – | – | 1.253
x2 = 0.4585 | – | 1135.37 | 1353 | –
x2 = 0.4607 | -8.8e-08 | – | – | 1.24
x2 = 0.5105 | -8.1e-08 | – | – | 1.232
x2 = 0.5742 | – | 1093.68 | 1377 | –
x2 = 0.6242 | -5.5e-08 | – | – | 1.225
x2 = 0.6565 | – | 1064.03 | 1393 | –
x2 = 0.7019 | -3.4e-08 | – | – | 1.218
x2 = 0.7168 | – | 1042.36 | 1402 | –
x2 = 0.7571 | -1.8e-08 | – | – | 1.211
x2 = 0.7764 | – | 1020.96 | 1413 | –
x2 = 0.8105 | -5e-09 | – | – | 1.201
x2 = 0.822 | – | 1004.63 | 1419 | –
x2 = 0.8505 | 2e-09 | – | – | 1.112
x2 = 0.9177 | – | 970.54 | 1435 | –
x2 = 0.9321 | 7e-09 | – | – | 0.908

Clc1cccc(Cl)c1 [1,3-dichlorobenzene] + CC(=O)N(C)C
Details | excess molar volume [m3/mol] | mass density [kg/m3] | speed of sound [m/s] | viscosity [mPa·s]
x2 = 0.0879 | – | 1248.69 | 1277 | –
x2 = 0.1045 | -3e-08 | – | – | 1.024
x2 = 0.1294 | – | 1235.21 | 1284 | –
x2 = 0.1525 | -4.5e-08 | – | – | 1.023
x2 = 0.1659 | – | 1223.28 | 1290 | –
x2 = 0.1941 | -5.4e-08 | – | – | 1.022
x2 = 0.2267 | – | 1203.33 | 1301 | –
x2 = 0.262 | -6.7e-08 | – | – | 1.021
x2 = 0.2831 | – | 1184.73 | 1312 | –
x2 = 0.3235 | -7.5e-08 | – | – | 1.02
x2 = 0.3601 | – | 1159.16 | 1326 | –
x2 = 0.4052 | -7.7e-08 | – | – | 1.019
x2 = 0.42 | – | 1139.1 | 1337 | –
x2 = 0.4672 | -7.3e-08 | – | – | 1.018
x2 = 0.4742 | – | 1120.88 | 1347 | –
x2 = 0.522 | -6.6e-08 | – | – | 1.017
x2 = 0.6086 | – | 1075.37 | 1372 | –
x2 = 0.6531 | -4e-08 | – | – | 1.016
x2 = 0.6847 | – | 1049.44 | 1385 | –
x2 = 0.7245 | -2.5e-08 | – | – | 1.015
x2 = 0.7295 | – | 1034.11 | 1393 | –
x2 = 0.7656 | -1.4e-08 | – | – | 1.014
x2 = 0.7721 | – | 1019.55 | 1400 | –
x2 = 0.804 | -7e-09 | – | – | 1.013
x2 = 0.8389 | – | 996.66 | 1413 | –
x2 = 0.8631 | 2e-09 | – | – | 1.011
x2 = 0.8967 | – | 969.13 | 1429 | –
x2 = 0.9131 | – | – | – | 1.007
x2 = 0.969 | – | 945.84 | 1437 | –
x2 = 0.9743 | – | – | – | 0.952

Cc1ccccc1Cl [2-chlorotoluene] + CC(=O)N(C)C
Details | excess molar volume [m3/mol] | mass density [kg/m3] | speed of sound [m/s] | viscosity [mPa·s]
x2 = 0.1 | – | 1059.98 | 1305 | –
x2 = 0.106 | -2e-08 | – | – | 0.884
x2 = 0.1231 | -2.2e-08 | – | – | 0.883
x2 = 0.1527 | – | 1053.19 | 1316 | –
x2 = 0.1854 | -3e-08 | – | – | 0.882
x2 = 0.1862 | – | 1048.87 | 1322 | –
x2 = 0.2241 | -3.5e-08 | 1043.95 | 1330 | 0.881
x2 = 0.2585 | – | 1039.48 | 1337 | –
x2 = 0.2672 | -3.9e-08 | – | – | 0.88
x2 = 0.3057 | -4.3e-08 | – | – | 0.879
x2 = 0.3232 | – | 1031.07 | 1350 | –
x2 = 0.3545 | – | 1026.99 | 1356 | –
x2 = 0.3762 | -4.9e-08 | – | – | 0.878
x2 = 0.4095 | -5.1e-08 | – | – | 0.877
x2 = 0.4673 | – | 1012.24 | 1378 | –
x2 = 0.503 | – | 1007.54 | 1384 | –
x2 = 0.5255 | -5.5e-08 | – | – | 0.876
x2 = 0.5483 | – | 1001.55 | 1391 | –
x2 = 0.561 | -5.5e-08 | – | – | 0.875
x2 = 0.6052 | -5.2e-08 | – | – | 0.874
x2 = 0.6722 | – | 985.14 | 1407 | –
x2 = 0.7214 | -4.2e-08 | – | – | 0.873
x2 = 0.7275 | – | 977.79 | 1415 | –
x2 = 0.7625 | – | 973.13 | 1416 | –
x2 = 0.7712 | -3.6e-08 | – | – | 0.872
x2 = 0.8021 | -3.2e-08 | – | – | 0.871
x2 = 0.8525 | – | 961.13 | 1428 | –
x2 = 0.8795 | -2.3e-08 | – | – | 0.869
